In series [1] the test system is human lung epithelial normal cell 2B. Description: cells. The settings on record: 24 h. It counts as cell-based. The source says: (§1) The two human acute lymphoblastic leukemia cells K562 and Kasumi, two human breast adenocarcinoma cells MCF7 and MDA-MB-231, human hepatoma cell HepG-2, human lung adenocarcinoma cell A549, human gastric cancer cell SGC-7901, human colon cancer cell HCT-116, human ovarian cancer cell line SKOV3, or human lung epithelial normal cell 2B were obtained from Beyotime Biotechnology and utilized to test the cytotoxicity of compounds by MTT assays as previous study. The anti-inflammatory effect of the compounds was detected by the influence on the increase in the level of nitric oxide caused by lipopolysaccharide (LPS) based on the classic Griess method. RAW 264.7 cells (Shanghai Institutes for Biological Science) were seeded in 96-well plates and incubated for 24 h. Then, cells were treated with compounds 29, 29a, 31, and 31a (0-80 μM) for 30 min, followed by co-treatment with LPS ([…]) for another 24 h. The Nitric Oxide assay kit with Griess reagents (Beyotime, Lot: S0021, Shanghai, China) was used to examine cellular supernatant nitrite accumulation, which represents cellular NO levels. The OD value of 540 nm absorbance was detected with a microplate reader. Their authentication in the laboratory was performed regularly based on morphology and gene/protein expression. The tested micro-organisms including Gram-negative bacteria E. coli ATCC 35218 and Pseudomonas aeruginosa ATCC 27853, and Gram-positive bacteria Staphylococcus aureus ATCC 29213 and B. subtilis ATCC 6633, and fungi Candida albicans, Rhizoctonia solani and Aspergillus fumigatus were treated with different concentrations of compounds (1 μM, 10 μM, 100 μM) using Bauer-Kirby disk diffusion method to evaluate the antimicrobial activities.

The test system of series [2] is human gastric cancer cell SGC-7901. Description: cells. It counts as cell-based. As to conditions: 24 h.
From the text: as §1

Series [3] deals with human colon cancer cell HCT-116. Kind of series: cells. As to conditions: 24 h. It counts as cell-based.
From the text: as §1

The subject of series [4] is human breast adenocarcinoma cells MDA-MB-231. Description: cells. The series is classed as cell-based. As to conditions: 24 h.
From the text: as §1

For series [5], the system named is human hepatoma cell HepG-2. Description: cells. It counts as cell-based. The settings on record: 24 h.
From the text: as §1

In series [6] the test system is human acute lymphoblastic leukemia cells K562. Kind of series: cells. The series is classed as cell-based. The settings on record: 24 h.
From the text: as §1

For series [7], the system named is human breast adenocarcinoma cells MCF7. Description: cells. It counts as cell-based. The settings on record: 24 h.
From the text: as §1

In the next series the test system is human cells Kasumi. Description: MTT cytotoxicity assay, Kasumi. It counts as cell-based. The settings on record: 24 h.
From the text: as §1

Series [8] deals with S. brevitalea DSM 7029 wild type. Description: Growth curve of DSM 7029 wild type with compounds (Bioscreen C). The series is classed as cell-based, Schlegelella brevitalea DSM 7029. As to conditions: CYMG medium, compound 0.1 μg/μL, OD600 every hour for 42 h, Bioscreen C. As to the method:
(§2) The growth curve was tested by Bioscreen C (Labsystems, Finland) as follow. Overnight culture was inoculated into 400 μL fresh CYMG medium in the ratio of 1:100 (the concentration of compounds was 0.1 μg/μL) and shook in normal speed. The OD600 value was gained in every hour for 42 h in total. Biofilm formation was measured at 18 h and 36 h respectively, as reported previously. In brief, the free-floating cells were removed, and the microtitre plate was washed with PBS (pH 7.4) after incubation for 18 h and 36 h. The biofilm was stained by adding 200 µL of crystal violet (0.1%) solution. Crystal violet solution was removed after 15 min and 200 µL of ethanol (95%) was added. The absorbance at OD600 was read using a microplate reader (Infinite M200, Tecan, Männedorf, Switzerland). Meanwhile, free-floating cells were used to test the secretion of pigment. The bacteria were removed and the supernatant was measured at OD600.

Series [9] has as its system human lung adenocarcinoma cell A549. Description: MTT cytotoxicity assay, A549. The settings on record: 24 h. The series is classed as cell-based.
From the text: as §1

Series [10] deals with S. brevitalea DSM 7029 wild type. Kind of series: Biofilm formation of DSM 7029 wild type with compounds (crystal violet). The series is classed as cell-based, Schlegelella brevitalea DSM 7029. As to the method:
as §2

The next series relates to tumor lines. Description: MTT cytotoxicity assay, statements on the whole panel. It counts as cell-based, human. The settings on record: MTT assay, panel of tumor cell lines.
From the text: as §1

The subject of series [11] is A1 domain of CsA1T1 (GdnA). Kind of series: Adenylation activity of A1 domain (ATP/PPi exchange, pyrophosphate production assay). It counts as biochemical, Schlegelella brevitalea DSM 7029. As to conditions: for relative activity of A1 domain for the activation of amino acids, Average: CsA1T1 1 μM, 10 mM amino acid, 2.5 mM ATP, pH 7.6, A360, L-Met = 100%, mean of n = 3; for selectivity of A1 domain for amino acids in words: response to reviewers on Supplementary Fig. 6a. How it is done:
For pyrophosphate production assays, the reaction system contains 10 mM amino acid substrates, 2.5 mM ATP (Solarbio), 0.2 mM MESG (Medchemexpress), 1 U/mL purine nucleoside phosphorylase (Shanghai yuanye Bio-Technology Co., Ltd), 0.4 U/mL inorganic pyrophosphatase (Sigma), 150 mM hydroxylamine (Sigma) and 1 μM proteins in 100 μL buffer (50 mM Tris, 300 mM NaCl and 5 mM MgCl2, pH 7.6). The value was read at A360 in a SpectraMax M5 plate reader (Molecular Devices, Sunnyvale, California) in 96 well, clear-bottomed plates (Corning). A360 values were converted to pyrophosphate release, by comparing with a standard curve (KH2PO4 from 2 μM to 128 μM) for known quantities of pyrophosphate.

Non-standard residues stand in square brackets, D forms with d. Residues, ends and D or L forms follow the SMILES beside them. *: point of attachment. dMet(O) = CS(=O)CC[C@@H](N)C(=O)O; Lauroyl = CCCCCCCCCCCC(=O)*; Decanoyl = CCCCCCCCCC(=O)*; NH(CH2)4NH2 = NCCCCN*; For = O=C* Some results are limits rather than exact numbers.

On to `CC(C)[C@H](NC(=O)[C@@H]1CCCN1C(=O)[C@@H](CC(N)=O)NC(=O)[C@H](N)CC[S+](C)[O-])C(=O)N[C@H](Cc1ccccc1)C(=O)N1CCC[C@H]1C(=O)N[C@@H](Cc1c[nH]c2ccccc12)C(=O)N[C@@H](C(=O)N[C@@H](C)C(=O)N[C@H](C)C(=O)N[C@@H](CO)C(=O)N[C@@H](C)C(=O)NCCCCN)C(C)C` (stereo partly drawn) [Compound 2, Glidonin B] (H-[dMet(O)][dN]PV[dF]PW[dV]A[dA]SA-{NH(CH2)4NH2}), for which the IC50 in series [1], in series [2], in series [3], in [4], in series [5] and in series [6] was greater than 20 µM in each case. The IC50 (in series [7]; with human cells Kasumi; in series [9]) was greater than 20 µM throughout. The “effect on growth of DSM 7029 wild type in words” value in series [8] is on record as “no effect”. In addition, the “effect on biofilm formation of DSM 7029 wild type in words” value in [10] (crystal violet staining) is “less effect on biofilm formation”. For the same compound, the “biofilm formation 18 h, Average” value in [10] (relative to wild type treated with H2O = 100%, crystal violet 0.1%, OD600, mean of n = 3) turned out to be 92.0189%. The “biofilm formation 36 h” value in series [10] (relative to wild type treated with H2O = 100%, crystal violet 0.1%, OD600, replicate 1) was 105.006%; in series [10] (relative to wild type treated with H2O = 100%, crystal violet 0.1%, OD600, replicate 2) it was 81.9095%; in series [10] (relative to wild type treated with H2O = 100%, crystal violet 0.1%, OD600, replicate 3), 97.572%.
With `CSCC[C@@H](NC=O)C(=O)N[C@H](CC(N)=O)C(=O)N1CCC[C@H]1C(=O)N[C@H](C(=O)N[C@H](Cc1ccccc1)C(=O)N1CCC[C@H]1C(=O)N[C@@H](Cc1c[nH]c2ccccc12)C(=O)N[C@@H](C(=O)N[C@@H](C)C(=O)N[C@H](C)C(=O)N[C@@H](CO)C(=O)N[C@@H](C)C(=O)NCCCCN)C(C)C)C(C)C` [Compound 4, Glidonin D] (For-[dM][dN]PV[dF]PW[dV]A[dA]SA-{NH(CH2)4NH2}), the IC50 in series [1], in series [2], in series [3], in series [4], in [5] and in series [6] was greater than 20 µM throughout. For the same compound, the IC50 (in series [7]; in the series with human cells Kasumi; in series [9]) was greater than 20 µM each time.
`CCCCCCCCCC(=O)N[C@H](CCSC)C(=O)N[C@H](CC(N)=O)C(=O)N1CCC[C@H]1C(=O)N[C@H](C(=O)N[C@H](Cc1ccccc1)C(=O)N1CCC[C@H]1C(=O)N[C@@H](Cc1c[nH]c2ccccc12)C(=O)N[C@@H](C(=O)N[C@@H](C)C(=O)N[C@H](C)C(=O)N[C@@H](CO)C(=O)N[C@@H](C)C(=O)NCCCCN)C(C)C)C(C)C` [Compound 6, Glidonin F] (Decanoyl-[dM][dN]PV[dF]PW[dV]A[dA]SA-{NH(CH2)4NH2}): the IC50 in [1], in series [4], in series [5] and in series [9] was greater than 20 µM in each case.
As to `CCCCCCCCCCCC(=O)N[C@H](CC(C)C)C(=O)N[C@H](CC(N)=O)C(=O)N1CCC[C@H]1C(=O)N[C@H](C(=O)N[C@H](Cc1ccccc1)C(=O)N1CCC[C@H]1C(=O)N[C@@H](Cc1c[nH]c2ccccc12)C(=O)N[C@@H](C(=O)N[C@@H](C)C(=O)N[C@H](C)C(=O)N[C@@H](CO)C(=O)N[C@@H](C)C(=O)NCCCCN)C(C)C)C(C)C` [Compound 9, Glidonin I] (Lauroyl-[dL][dN]PV[dF]PW[dV]A[dA]SA-{NH(CH2)4NH2}), the IC50 is 10.4 ± 0.54 µM in series [1]; greater than 20 µM in series [2]; greater than 20 µM in series [3]; 4.26 µM in [4]; greater than 20 µM in [5]; greater than 20 µM in [6]. The IC50 in series [7] was greater than 20 µM; in the series on human cells Kasumi, 9.65 ± 0.4 µM; in series [9] it was 3.26 µM. Also, in the series with tumor lines, the “cytotoxic / antitumor activity in words” value was “broad-spectrum cytotoxicity”.
As to `NCC(=O)O` [Gly], the “relative activity of A1 domain for the activation of amino acids, Average” value (from here on “relative activity of A1 domain”) in series [11] was 3.896%.
For the compound `C[C@H](N)C(=O)O` [L-Ala], in series [11], the “relative activity of A1 domain” value was 37.8571% and the “selectivity of A1 domain for amino acids in words” value (“selectivity of A1 domain” for short) is “broad selectivity”.
Take `NC(=O)C[C@H](N)C(=O)O` [L-Asn]: the “relative activity of A1 domain” value in series [11] is on record as 8.604%.
On to `N[C@@H](CS)C(=O)O` [L-Cys], for which the “relative activity of A1 domain” value in [11] is listed as 4.302%.
`NC(=O)CC[C@H](N)C(=O)O` [L-Gln]: in [11], the “relative activity of A1 domain” value is on record as 42.7539% and the “selectivity of A1 domain” value is “broad selectivity”.
Consider `N[C@@H](CCC(=O)O)C(=O)O` [L-Glu], for which, in series [11], the “relative activity of A1 domain” value is 43.4238% and the “selectivity of A1 domain” value is recorded as “broad selectivity”.
Turning to `N[C@@H](Cc1c[nH]cn1)C(=O)O` [L-His], the “relative activity of A1 domain” value in series [11] stood at 1.516%.
For the compound `CC[C@H](C)[C@H](N)C(=O)O` [L-Ile], in [11], the “relative activity of A1 domain” value stood at 8.11% and the “selectivity of A1 domain” value was “weaker selectivity”.
For the compound `CC(C)C[C@H](N)C(=O)O` [L-Leu], in series [11], the “relative activity of A1 domain” value is 48.0078%.
As to `NCCCC[C@H](N)C(=O)O` [L-Lys], the “selectivity of A1 domain” value in series [11] is “no activity”.
Regarding `C[S+]([O-])CC[C@H](N)C(=O)O` (stereo partly drawn) [L-MetO], the “relative activity of A1 domain” value in [11] stood at 74.5064%.
Still for that read-out and setting: the figure for `CSCC[C@H](N)C(=O)O` [L-Met] is 100%; for `N[C@@H](Cc1ccccc1)C(=O)O` [L-Phe] it is 16.3434%.
The same measure, in the same setting: with `N[C@@H](CO)C(=O)O` [L-Ser] the figure was 10.8427%; with `C[C@@H](O)[C@H](N)C(=O)O` [L-Thr], 9.697%.
Consider `N[C@@H](Cc1c[nH]c2ccccc12)C(=O)O` [L-Trp], for which, in series [11], the “relative activity of A1 domain” value amounted to 8.022%.
In the case of `CC(C)[C@H](N)C(=O)O` [L-Val], in [11], the “relative activity of A1 domain” value worked out at 4.884% and the “selectivity of A1 domain” value is “weaker selectivity”.
